pIC50: −log10 of the molar value. Like-named read-outs stand apart in the source and are kept apart here.
Molecular target: recombinant eIF4E (Homo sapiens (Human), UniProt P06730)
Test: Fluorescence polarization competition assay for eIF4E binding potency
In short: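 Competitive displacement format: compounds compete with a fluorescent m7GDP tracer (20 nM) for 75 nM recombinant eIF4E. Incubation is 30 min at room temperature, protected from light, with 1% DMSO. Polarization read gives IC50 over eight 3-fold concentrations.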

[1] = fluorescence polarization competition, 75 nM recombinant eIF4E, 20 nM EDA-m7GDP-ATTO-550, IC50 class, read-out: elF4E FP
[2] = inhibition of eIF4E/EDA-m7GDP-ATTO-550 binding by 50%, Table 4B calculated values, read-out: IC50

Chain of recombinant eIF4E (P06730 whole entry): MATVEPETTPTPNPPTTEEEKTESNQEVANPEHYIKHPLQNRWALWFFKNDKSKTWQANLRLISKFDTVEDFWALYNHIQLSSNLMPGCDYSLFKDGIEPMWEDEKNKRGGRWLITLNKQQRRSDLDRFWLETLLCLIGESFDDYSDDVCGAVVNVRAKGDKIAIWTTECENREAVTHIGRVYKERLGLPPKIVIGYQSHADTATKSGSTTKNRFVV

pIC50 [1] | pIC50 [2] | SMILES
> 7.30 | 7.96 | Cc1nc2cnc(C3CC3)c(C#N)c2c(=O)n1CCOc1ccc(Cl)cc1-c1cc(CF)nc2c(C(=O)O)csc12 [compound 917]
> 7.30 | 8.36 | Cc1cc(-c2cc(Cl)ccc2OCCn2c(C)nc3cc(Cl)c(N4CCC4(C)C)c(C#N)c3c2=O)c2scc(C(=O)O)c2n1 [compound 918]
> 7.30 | 7.75 | Cc1cc(-c2cc(Cl)ccc2OCCn2c(C)nc3cc(Cl)c(N4CCC(F)(F)CC4)c(C#N)c3c2=O)c2scc(C(=O)O)c2n1 [compound 919]
> 7.30 | 8.24 | Cc1cc(-c2cc(Cl)ccc2OCCn2c(C)nc3cc(Cl)c(N4CCCC4(C)C)c(C#N)c3c2=O)c2scc(C(=O)O)c2n1 [compound 920]
6.00 to 7.30 | 7.16 | Cc1cc(-c2cc(Cl)ccc2OCCn2c(C)nc3cc(F)c(-c4cnc(C)s4)c(C#N)c3c2=O)c2scc(C(=O)O)c2n1 [compound 921]
6.00 to 7.30 | 7.05 | Cc1nc2cnc(C3CC3)c(C#N)c2c(=O)n1CCOc1ccc(Cl)cc1Sc1nc(C(=O)O)cs1 [compound 922]
> 7.30 | 8.43 | CCc1ncc2nc(C)n(CCOc3ccc(Cl)cc3-c3cc(C)nc4c(C(=O)O)csc34)c(=O)c2c1C#N [compound 923]
> 7.30 | 7.84 | Cc1cc(-c2cc(Cl)ccc2OCCn2c(C)nc3c(C)nc(-c4ccccc4C(F)(F)F)c(C#N)c3c2=O)c2scc(C(=O)O)c2n1 [compound 924]
> 7.30 | 7.37 | Cc1cc(-c2cc(Cl)ccc2OCCn2c(C)nc3c(C)nc(-c4cccc(C(F)(F)F)c4)c(C#N)c3c2=O)c2scc(C(=O)O)c2n1 [compound 925]
> 7.30 | 7.74 | Cc1cc(-c2cc(Cl)ccc2OCCn2c(C)nc3c(C)nc(-c4ccc(C(F)(F)F)cc4)c(C#N)c3c2=O)c2scc(C(=O)O)c2n1 [compound 926]
> 7.30 | 8.20 | Cc1cc(-c2cc(Cl)ccc2OCCn2c(C)nc3c(C)nc(-c4cc(F)ccc4C)c(C#N)c3c2=O)c2scc(C(=O)O)c2n1 [compound 927]
> 7.30 | 7.41 | Cc1cc(-c2cc(Cl)ccc2OCCn2c(C)nc3cnc(C4CC(F)(F)C4)c(C#N)c3c2=O)c2scc(C(=O)O)c2n1 [compound 928]
> 7.30 | 7.65 | Cc1cc(-c2cc(Cl)ccc2OCCn2c(C)nc3cnc(C4CCCC4(F)F)c(C#N)c3c2=O)c2scc(C(=O)O)c2n1 (stereo not shown) [compound 929]
> 7.30 | 8.16 | Cc1cc(-c2cc(Cl)ccc2OCCn2c(C)nc3cnc(C4CCC(F)(F)C4)c(C#N)c3c2=O)c2scc(C(=O)O)c2n1 (stereo not shown) [compound 930]
> 7.30 | 7.86 | Cc1cc(-c2cc(Cl)ccc2OCCn2c(C)nc3cnc(C4CCCC(F)(F)C4)c(C#N)c3c2=O)c2scc(C(=O)O)c2n1 (stereo not shown) [compound 931]
> 7.30 | 7.75 | Cc1cc(-c2c(F)cc3nc(C)n(CCOc4ccc(Cl)cc4-c4cc(C)nc5c(C(=O)O)csc45)c(=O)c3c2C#N)cc(C)n1 [compound 932]
6.00 to 7.30 | 6.91 | Cc1cc(-c2c(CF)cc3nc(C)n(CCOc4ccc(Cl)cc4-c4cc(C)nc5c(C(=O)O)csc45)c(=O)c3c2C#N)cc(C)n1 [compound 933]
> 7.30 | 7.87 | Cc1cc(-c2c(C(F)(F)F)cc3nc(C)n(CCOc4ccc(Cl)cc4-c4cc(C)nc5c(C(=O)O)csc45)c(=O)c3c2C#N)cc(CF)n1 [compound 934]
> 7.30 | 7.71 | Cc1cc(-c2cc(Cl)ccc2OCCn2c(C)nc3cc(F)c(-c4ccccc4)c(C#N)c3c2=O)c2scc(C(=O)O)c2n1 [compound 935]
> 7.30 | 8.61 | Cc1cc(-c2cc(Cl)ccc2OCCn2c(C)nc3cc(C(F)(F)F)c(C(C)(C)O)nc3c2=O)c2scc(C(=O)O)c2n1 [compound 938]
6.00 to 7.30 | 6.33 | Cc1nc2cnc(C3CC3)c(C#N)c2c(=O)n1CCOc1ccc(Cl)cc1Sc1cccc(C(=O)O)n1 [compound 940]
> 7.30 | 7.70 | Cc1cc(-c2cc(Cl)ccc2OCCn2c(C)nc3cnc(-c4ccccc4F)c(C#N)c3c2=O)c2scc(C(=O)O)c2n1 [compound 941]
> 7.30 | 8.16 | Cc1cc(-c2cc(Cl)ccc2OCCn2c(C)nc3cnc(-c4cccc(F)c4)c(C#N)c3c2=O)c2scc(C(=O)O)c2n1 [compound 942]
> 7.30 | 7.83 | Cc1cc(-c2cc(Cl)ccc2OCCn2c(C)nc3cnc(-c4ccc(F)cc4)c(C#N)c3c2=O)c2scc(C(=O)O)c2n1 [compound 943]
> 7.30 | 7.34 | Cc1cc(-c2cc(Cl)ccc2OCCn2c(C)nc3cnc(-c4ccccc4C)c(C#N)c3c2=O)c2scc(C(=O)O)c2n1 [compound 944]

pIC50 [1] | pIC50 [2] | SMILES
> 7.30 | 7.41 | Cc1cccc(-c2ncc3nc(C)n(CCOc4ccc(Cl)cc4-c4cc(C)nc5c(C(=O)O)csc45)c(=O)c3c2C#N)c1 [compound 945]
> 7.30 | 7.56 | Cc1ccc(-c2ncc3nc(C)n(CCOc4ccc(Cl)cc4-c4cc(C)nc5c(C(=O)O)csc45)c(=O)c3c2C#N)cc1 [compound 946]
> 7.30 | 7.63 | Cc1cc(-c2cc(Cl)ccc2OCCn2c(C)nc3cnc(-c4ccccc4Cl)c(C#N)c3c2=O)c2scc(C(=O)O)c2n1 [compound 947]
> 7.30 | 7.74 | Cc1cc(-c2cc(Cl)ccc2OCCn2c(C)nc3cnc(-c4cccc(Cl)c4)c(C#N)c3c2=O)c2scc(C(=O)O)c2n1 [compound 948]
> 7.30 | 7.43 | Cc1cc(-c2cc(Cl)ccc2OCCn2c(C)nc3cnc(-c4ccc(Cl)cc4)c(C#N)c3c2=O)c2scc(C(=O)O)c2n1 [compound 949]
> 7.30 | 7.76 | Cc1cc(-c2cc(Cl)ccc2OCCn2c(C)nc3cnc(-c4ccccc4C(F)(F)F)c(C#N)c3c2=O)c2scc(C(=O)O)c2n1 [compound 950]
> 7.30 | 7.36 | Cc1cc(-c2cc(Cl)ccc2OCCn2c(C)nc3cnc(-c4cccc(C(F)(F)F)c4)c(C#N)c3c2=O)c2scc(C(=O)O)c2n1 [compound 951]
> 7.30 | 7.35 | Cc1cc(-c2cc(Cl)ccc2OCCn2c(C)nc3cnc(-c4ccc(C(F)(F)F)cc4)c(C#N)c3c2=O)c2scc(C(=O)O)c2n1 [compound 952]
> 7.30 | 7.87 | Cc1cc(-c2cc(Cl)ccc2OCCn2c(C)nc3cnc(-c4cc(Cl)ccc4C)c(C#N)c3c2=O)c2scc(C(=O)O)c2n1 [compound 953]
> 7.30 | 8.08 | Cc1cc(-c2cc(Cl)ccc2OCCn2c(C)nc3cnc(-c4cc(Cl)ccc4Cl)c(C#N)c3c2=O)c2scc(C(=O)O)c2n1 [compound 954]
> 7.30 | 7.99 | Cc1cc(-c2cc(Cl)ccc2OCCn2c(C)nc3cc(Cl)c(N(C)C(C)(C)C)c(C#N)c3c2=O)c2scc(C(=O)O)c2n1 [compound 955]
> 7.30 | 7.78 | Cc1cc(-c2cc(Cl)ccc2OCCn2c(C)nc3cc(Cl)c(NC(C)(C)C)c(C#N)c3c2=O)c2scc(C(=O)O)c2n1 [compound 956]
> 7.30 | 8.24 | Cc1cc(-c2cc(Cl)ccc2OCCn2c(C)nc3cc(Cl)c(N(C)C4CC4)c(C#N)c3c2=O)c2scc(C(=O)O)c2n1 [compound 957]
> 7.30 | 7.87 | Cc1cc(-c2cc(Cl)ccc2OCCn2c(C)nc3cc(Cl)c(NC4CC4)c(C#N)c3c2=O)c2scc(C(=O)O)c2n1 [compound 958]
> 7.30 | 7.83 | Cc1ccc(N(C)c2c(Cl)cc3nc(C)n(CCOc4ccc(Cl)cc4-c4cc(C)nc5c(C(=O)O)csc45)c(=O)c3c2C#N)cn1 [compound 959]
> 7.30 | 7.40 | Cc1ccc(Nc2c(Cl)cc3nc(C)n(CCOc4ccc(Cl)cc4-c4cc(C)nc5c(C(=O)O)csc45)c(=O)c3c2C#N)cn1 [compound 960]
> 7.30 | 7.68 | Cc1cc(-c2cc(Cl)ccc2OCCn2c(C)nc3cc(Cl)c(N(C)c4cncc(F)c4)c(C#N)c3c2=O)c2scc(C(=O)O)c2n1 [compound 961]
> 7.30 | 8.50 | Cc1cc(-c2cc(Cl)ccc2OCCn2c(C)nc3cc(Cl)c(Nc4cncc(F)c4)c(C#N)c3c2=O)c2scc(C(=O)O)c2n1 [compound 962]
> 7.30 | 8.11 | Cc1cc(-c2c(C(F)(F)F)cc3nc(C)n(CCOc4ccc(Cl)cc4-c4cc(C)nc5c(C(=O)O)csc45)c(=O)c3c2C#N)nc(C)n1 [compound 963]
> 7.30 | 8.48 | Cc1cc(-c2cc(Cl)ccc2OCCn2c(C)nc3cc(C(F)(F)F)c(-c4nc(C)ncc4F)c(C#N)c3c2=O)c2scc(C(=O)O)c2n1 [compound 964]
6.00 to 7.30 | 6.93 | Cc1cc(C)nc(-c2c(C(F)(F)F)cc3nc(C)n(CCOc4ccc(Cl)cc4-c4cc(C)nc5c(C(=O)O)csc45)c(=O)c3c2C#N)n1 [compound 965]
> 7.30 | 8.45 | Cc1cc(-c2cc(Cl)ccc2OCCn2c(C)nc3cc(C(F)(F)F)c(-c4ncc(F)cn4)c(C#N)c3c2=O)c2scc(C(=O)O)c2n1 [compound 966]
> 7.30 | 7.91 | Cc1ccc(-c2c(C(F)(F)F)cc3nc(C)n(CCOc4ccc(Cl)cc4-c4cc(C)nc5c(C(=O)O)csc45)c(=O)c3c2C#N)nn1 [compound 967]
> 7.30 | 8.05 | Cc1cnc(C)c(-c2c(C(F)(F)F)cc3nc(C)n(CCOc4ccc(Cl)cc4-c4cc(C)nc5c(C(=O)O)csc45)c(=O)c3c2C#N)n1 [compound 968]

SMILES | pIC50 [1] | pIC50 [2]
Cc1cc(-c2cc(Cl)ccc2OCCn2c(C)nc3cc(C(F)(F)F)c(-c4scnc4C)nc3c2=O)c2scc(C(=O)O)c2n1 [compound 939] | > 7.30 | 7.92
